Assay results: PMC7024211, “Antifouling Napyradiomycins from Marine-Derived Actinomycetes Streptomyces aculeolatus” (Marine Drugs, 2020)
≈ marks a conversion by molar mass, not a printed value.

Tests used:
[1] = Mussel plantigrade larvae settlement, 15 h acute exposure assay; format: in vivo; settings: Mytilus galloprovincialis (mussel, plantigrade larvae), in vivo, no mortality at highest tested concentration 12 µg/mL
Experimental: (§1) Mussel (M. galloprovincialis) adhesive larvae (plantigrades) were used to assess in vivo the antifouling activity of napyradiomycins (1–12) towards macrofouling. Juvenile mussel aggregates were collected at the intertidal rocky shore during low spring tides, at Memória beach, Matosinhos, Portugal (41°13′59″ N; 8°43′28″ W). At the laboratory, immediately before the bioassays, mussel plantigrade larvae were screened and isolated from the juvenile aggregates using a binocular microscope (Olympus SZX2-ILLT, Hamburg, Germany) and washed with filtered seawater to remove organic debris. Only competent plantigrade larvae (those showing foot exploratory behavior) were selected and used in the exposure bioassays following previously validated procedures. Plantigrades were exposed in 24-well polystyrene plates for 15 h in the darkness at 18 °C. DMSO was used as solvent for crude extracts, fractions and pure compounds stock and working solutions. Working solutions were prepared by successive dilutions of stock solutions in DMSO and then diluted in filtered seawater to obtain the test solutions. DMSO concentration in test solutions was always 0.1%. Four well replicates were used per condition with five larvae per well. Two negative controls, one with ultra-pure water and the other with DMSO 0.1% were included in all bioassays, as well as a positive control with 5 μM CuSO4 (a potent antifouling agent). Anti-settlement bioactivity was determined by the presence/absence of fixed byssal threads produced by each individual larvae for all the conditions tested. […] Chi-square Pearsons goodness-of-fit test was applied to data in order to determine EC50. Significance was considered at p < 0.01 for all analyses, and 95% lower and upper confidence limits [95% LCL; UCL] were presented. Therapeutic ratio (LC50/EC50) was used to evaluate the effectiveness vs. toxicity of compounds [19, 21].

[2] = system: M. galloprovincialis plantigrade larvae; assay: as above; format: in vivo; settings: 95% LCL, UCL in brackets
Experimental: as §1

[3] = system: C. marina; assay: Bacterial growth inhibition assay (OD600nm); format: cell-based, Cobetia marina
Description: (§2) Five marine bacterial species were used as models to assess antimicrofouling activity. The biofilm-forming marine bacteria Marinobacter hydrocarbonoclasticus DSM 8798 (ATCC 49840), Cobetia marina DSM 4741, Phaeobacter inhibens DSM 17,395, and Pseusooceanicola batsensis DSM 15,984 were obtained from DSMZ (Leibniz Institute DSMZ—German collection of Microorganisms and Cell Cultures) and Micrococcus luteus. Cultures were routinely grown in liquid marine broth (Carl Roth GmbH, Karlsruhe, Germany) with agitation (180 rpm) or on agar-supplemented marine broth, at 28 °C (M. hydrocarbonoclasticus and C. marina) or 30 °C (P. inhibens and P. batsensis). M. luteus was maintained in Brain Heart Infusion broth (BHI, Becton Dickinson, GmbH, Heidelberg, Germany) with agitation (180 rpm) or on agar-supplemented BHI, at 37 °C.
The antibacterial activity of the napyradiomycins (1–12) was assessed in 96-well polystyrene flat bottom microplates (Nunclon Delta Surface, Thermo Scientific, Roskilde, Denmark) following previously reported procedures. […] After 24 h (M. hydrocarbonoclasticus, C. marina) or 48 h (P. batsensis, P. inhibens, M. luteus) incubation, the OD600nm was determined (Molecular Devices, Spectra Max 190). […] The percentage of growth inhibition was calculated as the amount of growth relative to that of the bacterial species without added compounds (with the same amount of DMSO added). CuSO4 (5 μM), a potent antifouling agent used in antifouling paints, was used as reference.
(§3) All assays were performed in triplicate, and results are representative of the average and standard error of the mean (SEM). Statistical analysis was performed in GraphPad Prism 8.0.2 (San Diego, CA, USA), using one-way ANOVA followed by a Dunnett’s multiple comparisons test against the control (species grown with the same amount of DMSO added).

[4] = system: P. batsensis; assay: Bacterial growth inhibition assay (OD600nm); format: cell-based, Pseudooceanicola batsensis
Experimental: As a first screening approach, liquid cultures of M. hydrocarbonoclasticus, and C. marina in a 96-well format were analyzed for bacterial growth inhibition by percent decrease in OD600 after incubation with napyradiomycins (1–12) at 31.25 µg/mL.
as §2
The antibacterial activity of the napyradiomycins (1–12) was assessed in 96-well polystyrene flat bottom microplates (Nunclon Delta Surface, Thermo Scientific, Roskilde, Denmark) following previously reported procedures. For initial screening, bacterial overnight cultures were diluted to an optical density (OD600nm) of 0.2 and incubated statically at 28 °C (M. hydrocarbonoclasticus, C. marina), 30 °C (P. inhibens, P. batsensis) or 37 °C (M. luteus) in a 96-well microplate in the presence or absence of 31.25 µg/mL of the napyradiomycins, solubilized in DMSO. After 24 h (M. hydrocarbonoclasticus, C. marina) or 48 h (P. batsensis, P. inhibens, M. luteus) incubation, the OD600nm was determined (Molecular Devices, Spectra Max 190). […] The percentage of growth inhibition was calculated as the amount of growth relative to that of the bacterial species without added compounds (with the same amount of DMSO added). CuSO4 (5 μM), a potent antifouling agent used in antifouling paints, was used as reference.
as §3

Q: Which LC50 at 15 h [1] does the source give for CC(C)=CCCC(C)=CCC12OC(C)(C)C(Cl)CC1(Cl)C(=O)c1c(O)cc(O)cc1C2=O (stereo not drawn) [Napyradiomycin 1, napyradiomycin A1] here?
A: Its LC50 at 15 h is greater than 12 µg/mL.

Q: What about the “EC50 [Conf. limits] larval settlement” value [2] of the same molecule?
A: Its value is 0.655 [0.300; 0.906] µg/mL.

Q: What about the EC50 ([2]; Mytilus galloprovincialis, 15 h, read-out: EC50 [Conf. limits] larval settlement) of the same molecule?
A: The EC50 was 0.66 µg/mL (≈ 1.37 µM).

Q: What about the “% growth inhibition C. marina” value ([3]; 0.98 µg/mL) of the same molecule?
A: The value was “N.I”.

Q: What about the “% growth inhibition C. marina” value ([3]; 1.95 µg/mL) of the same molecule?
A: The value was “N.I”.

Q: What about the inhibition at 3.91 µg/mL ([3]; Cobetia marina, 3.91 µg/mL) of the same molecule?
A: The inhibition at 3.91 µg/mL was 5.5 ± 0.8%.

Q: And the inhibition at 7.81 µg/mL ([3]; Cobetia marina, 7.81 µg/mL)?
A: Its inhibition at 7.81 µg/mL is 18.2 ± 0.7%.

Q: And the inhibition at 15.6 µg/mL ([3]; Cobetia marina, 15.60 µg/mL)?
A: Its inhibition at 15.6 µg/mL is 15.3 ± 0.7%.

Q: And the inhibition at 31.25 µg/mL ([3]; Cobetia marina, 31.25 µg/mL)?
A: Its inhibition at 31.25 µg/mL is 19.8 ± 0.6%.

Q: What about the “% growth inhibition P. batsensis” value ([4]; 0.98 µg/mL) of the same molecule?
A: Its value is “N.I”.

Q: And the “% growth inhibition P. batsensis” value ([4]; 1.95 µg/mL)?
A: The value was “N.I”.

Q: And the “% growth inhibition P. batsensis” value ([4]; 3.91 µg/mL)?
A: Its value is “N.I”.

Q: What about the inhibition at 7.81 µg/mL ([4]; Pseudooceanicola batsensis, 7.81 µg/mL) of the same molecule?
A: Its inhibition at 7.81 µg/mL is 47.4 ± 0.3%.

Q: And the inhibition at 15.6 µg/mL ([4]; Pseudooceanicola batsensis, 15.60 µg/mL)?
A: The inhibition at 15.6 µg/mL was 62.7 ± 0.6%.

Q: What about the inhibition at 31.25 µg/mL ([4]; Pseudooceanicola batsensis, 31.25 µg/mL) of the same molecule?
A: Its inhibition at 31.25 µg/mL is 53.9 ± 0.3%.
